Results on six compounds are retold here after paper PMC10191376, “Characterization of the L-arabinofuranose-specific GafABCD ABC transporter essential for L-arabinose-dependent growth of the lignocellulose-degrading bacterium Shewanella sp. ANA-3” (Microbiology, 2023).

The target of assay [1] is T1, GafASm (Smb_21587) (Sinorhizobium meliloti, UniProt Q926G2).
T1 construct: gene SM_b21587
As to the kind of experiment: DSF thermal shift (ΔTm […] °C at […]). It counts as binding. The following applies: read-out: ΔT m (°C) at 1.2 mM [ligand] / GafASm.

Assay [2] has as its target T1, GafASm (Smb_21587). Description: DSF thermal shift (ΔTm […] °C at […]). It counts as binding. The following applies: read-out: ΔT m (°C) at 1.2 mM [ligand] / GafASm. The source holds these as a separate data set.
The target of assay [3] is T1, GafASm (Smb_21587). Description: DSF thermal shift (ΔTm […] °C at […]). The assay is classed as binding. The following applies: read-out: ΔT m (°C) at 1.2 mM [ligand] / GafASm. This is another data set of the same source.
For assay [4], the target named is GafASw (Shewana3_2073). As to the kind of experiment: ITC, intrinsic fluorescence ([…]), DSF. It counts as binding, Shewanella sp. ANA-3. (In ITC the heat of successive injections is recorded.)
Assay [5] has as its target GafASw (Shewana3_2073). As to the kind of experiment: crystal structure ([…] Å), ITC, intrinsic fluorescence, DSF. The assay is classed as binding, Shewanella sp. ANA-3.
The target in assay [6] is T1, GafASm (Smb_21587). Description: DSF thermal shift (ΔTm […] °C at […]), weak. The assay is classed as binding. The following applies: read-out: ΔT m (°C) at 1.2 mM [ligand] / GafASm.

T1 sequence (Q926G2 entry or part of it): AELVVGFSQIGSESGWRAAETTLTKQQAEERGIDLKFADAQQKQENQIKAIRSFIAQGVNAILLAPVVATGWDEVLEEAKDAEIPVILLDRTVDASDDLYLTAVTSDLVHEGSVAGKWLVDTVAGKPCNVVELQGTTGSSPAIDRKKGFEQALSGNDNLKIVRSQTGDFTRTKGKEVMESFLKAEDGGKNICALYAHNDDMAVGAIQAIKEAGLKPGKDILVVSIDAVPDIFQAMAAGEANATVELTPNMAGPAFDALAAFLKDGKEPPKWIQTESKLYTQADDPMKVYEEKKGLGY

Consider `OC1OC[C@H](O)[C@H](O)[C@H]1O` (stereo partly drawn) [L-arabinose], for which the ΔTm at 1200 µM in assay [1] was 14.4 ± 0.2 °C. On to `C[C@H]1OC(O)[C@H](O)[C@@H](O)[C@H]1O` (stereo partly drawn) [D-fucose], for which, in assay [2], the ΔTm at 1200 µM is 11.8 ± 0.2 °C.

As for `OC[C@H]1OC(O)[C@H](O)[C@@H](O)[C@H]1O` (stereo partly drawn) [D-galactose], in assay [3], the ΔTm at 1200 µM was found to be 11.6 ± 0.2 °C.

`OC[C@H]1OC(O)[C@H](O)[C@H](O)[C@@H]1O` (stereo partly drawn) [D-allose] came in with a dissociation constant Kd in assay [4] of 27.4 ± 4.32 µM. In turn, `OC[C@@H]1OC(O)[C@H](O)[C@H]1O` (stereo partly drawn) [L-arabinofuranose] had a Kd in assay [5] of 5.8 ± 0.51 µM. In the case of `OC[C@H]1OC(O)[C@@H](O)[C@@H](O)[C@H]1O` (stereo partly drawn) [D-talose], the ΔTm at 1200 µM in assay [6] was determined as 3.4 ± 0.2 °C.

By Kd is commonly meant the free concentration of one partner at which half of the binding sites on the other are occupied at equilibrium, for simple one-to-one binding.
